Source: patent US20240158446A1, “CYCLIC COMPOUND HAVING SELECTIVE INHIBITORY ACTION ON KRAS OVER HRAS AND NRAS” (CHUGAI SEIYAKU KABUSHIKI KAISHA, priority 2021, published 2024)
pIC50, pKd: −log10 of the molar value.

Tests used:
[1] = target: GDP-bound KRAS wild-type protein (Homo sapiens, UniProt P01116); assay: Binding to KRAS by surface plasmon resonance (SPR), Single Cycle Kinetics; conditions: SPR, Single Cycle Kinetics, 1:1 binding model; GDP-bound KRAS wild-type protein; read-out: KRAS KD
Sequence of GDP-bound KRAS wild-type protein (P01116 whole entry): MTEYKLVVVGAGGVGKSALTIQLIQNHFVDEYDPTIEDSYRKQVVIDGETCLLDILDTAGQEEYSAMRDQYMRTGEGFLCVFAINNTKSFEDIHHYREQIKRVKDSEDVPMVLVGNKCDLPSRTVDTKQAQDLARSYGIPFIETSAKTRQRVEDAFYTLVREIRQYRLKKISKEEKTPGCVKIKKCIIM

[2] = target: GDP-bound HRAS wild-type protein (Homo sapiens, UniProt P01112); assay: Binding to HRAS by surface plasmon resonance (SPR), Single Cycle Kinetics; conditions: SPR; GDP-bound HRAS wild-type protein vs GDP-bound KRAS wild-type protein; KD ratio class
Sequence of GDP-bound HRAS wild-type protein (P01112 whole entry): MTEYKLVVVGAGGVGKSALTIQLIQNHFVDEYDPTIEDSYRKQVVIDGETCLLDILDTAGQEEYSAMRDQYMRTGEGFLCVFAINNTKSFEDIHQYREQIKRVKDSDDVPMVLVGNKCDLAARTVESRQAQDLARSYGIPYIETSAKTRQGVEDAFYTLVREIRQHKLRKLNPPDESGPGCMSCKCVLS

[3] = target: GDP-bound NRAS wild-type protein (Homo sapiens, UniProt P01111); assay: Binding to NRAS by surface plasmon resonance (SPR), Single Cycle Kinetics; conditions: SPR; GDP-bound NRAS wild-type protein vs GDP-bound KRAS wild-type protein; KD ratio class
Sequence of GDP-bound NRAS wild-type protein (P01111 whole entry): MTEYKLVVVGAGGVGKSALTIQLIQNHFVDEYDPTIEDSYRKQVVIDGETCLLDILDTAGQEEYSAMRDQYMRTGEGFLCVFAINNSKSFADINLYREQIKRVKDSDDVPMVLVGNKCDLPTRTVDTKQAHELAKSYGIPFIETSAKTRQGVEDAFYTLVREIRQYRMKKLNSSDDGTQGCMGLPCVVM

[4] = tested on: human lung cancer strain NCI-H441;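 note: cell proliferation inhibition after four days measured by CellTiter-Glo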

pKd [1]	pIC50 [4]	SMILES	HRAS/KRAS (ratio of KD value for HRAS to KD value for KRAS) [2]	NRAS/KRAS (ratio of KD value for NRAS to KD value for KRAS) [3]
9.89	7.94	CCO[C@@H]1C[C@H]2C(=O)NC3(CCC3)C(=O)N(C)[C@@H](C3CCCC3)C(=O)N(C)[C@H](C(=O)N3CCCC3)CC(=O)N(C)[C@@H](CC(F)F)C(=O)N[C@@H]([C@@H](C)CC)C(=O)N(C)CC(=O)N(C)[C@H]3C/C=C\CCN(C3=O)[C@@H](Cc3ccc(C(F)(F)F)cc3)C(=O)N(C)CC(=O)N[C@@H](CCc3cc(F)c(C(F)(F)F)c(F)c3)C(=O)N2C1 [PP1298]	A (a compound having 10 or more and less than 20 is denoted as A)	AA (a compound having 20 or more is denoted as AA)
9.85	7.96	CCC[C@H]1C(=O)N[C@@H]([C@@H](C)CC)C(=O)N(C)CC(=O)N(C)[C@H]2C/C=C\CCN(C2=O)[C@@H](Cc2ccc(C(F)(F)F)cc2)C(=O)N(C)CC(=O)N[C@@H](CCc2cc(F)c(C(F)(F)F)c(F)c2)C(=O)N2C[C@H](OCC)C[C@H]2C(=O)NC2(CCC2)C(=O)N(C)[C@@H](C2CCCC2)C(=O)N(C)[C@H](C(=O)N2CCCC2)CC(=O)N1C [PP1299, (2S,8S,12R,14S,20S,23S,27S,30S,36S,38Z)-20-cyclopentyl-8-[2-[3,5-difluoro-4-(trifluoromethyl)phenyl]ethyl]-12-ethoxy-4,19,22,26,32,35-hexamethyl-30-[(1S)-1-methylpropyl]-27-propyl-23-(pyrrolidine-1-carbonyl)-2-[[4-(trifluoromethyl)phenyl]methyl]spiro[1,4,7,10,16,19,22,26,29,32,35-undecazatricyclo[34.5.1.0^10,14]dotetracont-38-ene-17,1′-cyclobutane]-3,6,9,15,18,21,25,28,31,34,42-undecone]	A (a compound having 10 or more and less than 20 is denoted as A)	A (a compound having 10 or more and less than 20 is denoted as A)
9.62	7.46	CCO[C@@H]1C[C@H]2C(=O)NC3(CCC3)C(=O)N(C)[C@@H](C3CCCC3)C(=O)N(C)[C@H](C(=O)N(C)CCOC)CC(=O)N(C)[C@@H](CC3CC3)C(=O)N[C@@H]([C@@H](C)CC)C(=O)N(C)CC(=O)N(C)[C@H]3C/C=C\CCN(C3=O)[C@@H](Cc3ccc(C(F)(F)F)cc3)C(=O)N(C)CC(=O)N[C@@H](CCc3ccc(Cl)c(Cl)c3)C(=O)N2C1 [PP1329]	A (a compound having 10 or more and less than 20 is denoted as A)	AA (a compound having 20 or more is denoted as AA)
10.13	7.97	CC[C@H](C)[C@@H]1NC(=O)[C@H](CC)N(C)C(=O)C[C@@H](C(=O)N(C)C)N(C)C(=O)[C@H](C2CCCC2)N(C)C(=O)C2(CCCC2)NC(=O)[C@@H]2CCCN2C(=O)[C@H](CCc2ccc(C(F)(F)F)c(Cl)c2)NC(=O)CN(C)C(=O)[C@H](Cc2ccc(C(F)(F)F)cc2)N2C[C@H](C)CC[C@@H](C2=O)N(C)C(=O)CN(C)C1=O [PP1336]	B (a compound having 3 or more and less than 10 is denoted as B)	B (a compound having 3 or more and less than 10 is denoted as B)
9.77	7.53	CC[C@H](C)[C@@H]1NC(=O)[C@H](CC)N(C)C(=O)C[C@@H](C(=O)N2CCOCC2)N(C)C(=O)[C@H](C2CCCC2)N(C)C(=O)C2(CCCC2)NC(=O)[C@@H]2CCCN2C(=O)[C@H](CCc2ccc(C(F)(F)F)c(Cl)c2)NC(=O)CN(C)C(=O)[C@H](Cc2ccc(C(F)(F)F)cc2)N2C[C@H](C)CC[C@@H](C2=O)N(C)C(=O)CN(C)C1=O [PP1337]	B (a compound having 3 or more and less than 10 is denoted as B)	B (a compound having 3 or more and less than 10 is denoted as B)
9.85	7.46	CC[C@H](C)[C@@H]1NC(=O)[C@H](CC)N(C)C(=O)C[C@@H](C(=O)N2CCOCC2)N(C)C(=O)[C@H](C2CCCC2)N(C)C(=O)C2(CCC2)NC(=O)[C@@H]2CCCN2C(=O)[C@H](CCc2ccc(C(F)(F)F)c(Cl)c2)NC(=O)CN(C)C(=O)[C@H](Cc2ccc(C(F)(F)F)cc2)N2C[C@H](C)CC[C@@H](C2=O)N(C)C(=O)CN(C)C1=O [PP1338]	B (a compound having 3 or more and less than 10 is denoted as B)	B (a compound having 3 or more and less than 10 is denoted as B)
10.09	7.96	C#CC[C@H]1C(=O)N[C@@H]([C@@H](C)CC)C(=O)N(C)CC(=O)N(C)[C@H]2CC[C@@H](C)CN(C2=O)[C@@H](Cc2ccc(C(F)(F)F)cc2)C(=O)N(C)CC(=O)N[C@@H](CCc2ccc(C(F)(F)F)c(Cl)c2)C(=O)N2CCC[C@H]2C(=O)NC2(CCCC2)C(=O)N(C)[C@@H](C2CCCC2)C(=O)N(C)[C@H](C(=O)N(C)C)CC(=O)N1C [PP1340]	B (a compound having 3 or more and less than 10 is denoted as B)	B (a compound having 3 or more and less than 10 is denoted as B)
9.09	7.33	CC[C@H](C)[C@@H]1NC(=O)[C@H](CC2CC2)N(C)C(=O)C[C@@H](C(=O)N2CCOCC2)N(C)C(=O)[C@H](C2CCCC2)N(C)C(=O)C2(CCC2)NC(=O)[C@@H]2CCCN2C(=O)[C@H](CCc2ccc(C(F)(F)F)c(Cl)c2)NC(=O)CN(C)C(=O)[C@H](Cc2ccc(C(F)(F)F)cc2)N2C[C@H](C)CC[C@@H](C2=O)N(C)C(=O)[C@@H]2CCN2C1=O [PP1341]	B (a compound having 3 or more and less than 10 is denoted as B)	A (a compound having 10 or more and less than 20 is denoted as A)
10.04	8.30	CC[C@H](C)[C@@H]1NC(=O)[C@H](CC2CCC2)N(C)C(=O)C[C@@H](C(=O)N(C)C)N(C)C(=O)[C@H](C2CCCC2)N(C)C(=O)C2(CCCC2)NC(=O)[C@@H]2CCCN2C(=O)[C@H](CCc2ccc(C(F)(F)F)c(Cl)c2)NC(=O)CN(C)C(=O)[C@H](Cc2ccc(C(F)(F)F)cc2)N2C[C@H](C)CC[C@@H](C2=O)N(C)C(=O)CN(C)C1=O [PP1342]	B (a compound having 3 or more and less than 10 is denoted as B)	B (a compound having 3 or more and less than 10 is denoted as B)
9.57	7.71	CC[C@H](C)[C@@H]1NC(=O)[C@H](CC2CC2)N(C)C(=O)C[C@@H](C(=O)N2CCOCC2)N(C)C(=O)[C@H](C2CCCC2)N(C)C(=O)C2(CCCC2)NC(=O)[C@@H]2CCCN2C(=O)[C@H](CCc2ccc(C(F)(F)F)c(Cl)c2)NC(=O)CN(C)C(=O)[C@H](Cc2ccc(C(F)(F)F)cc2)N2C[C@H](C)CC[C@@H](C2=O)N(C)C(=O)CN(C)C1=O [PP1343]	B (a compound having 3 or more and less than 10 is denoted as B)	A (a compound having 10 or more and less than 20 is denoted as A)
9.85	7.78	CC[C@H](C)[C@@H]1NC(=O)[C@H](CC2CC2)N(C)C(=O)C[C@@H](C(=O)N2CCOCC2)N(C)C(=O)[C@H](C2CCCC2)N(C)C(=O)C2(CCC2)NC(=O)[C@@H]2CCCN2C(=O)[C@H](CCc2ccc(C(F)(F)F)c(Cl)c2)NC(=O)CN(C)C(=O)[C@H](Cc2ccc(C(F)(F)F)cc2)N2C[C@H](C)CC[C@@H](C2=O)N(C)C(=O)CN(C)C1=O [PP1344]	B (a compound having 3 or more and less than 10 is denoted as B)	B (a compound having 3 or more and less than 10 is denoted as B)
9.15	7.46	CC[C@H](C)[C@@H]1NC(=O)[C@H](CC2CCC2)N(C)C(=O)C[C@@H](C(=O)N2CCOCC2)N(C)C(=O)[C@H](C2CCCC2)N(C)C(=O)C2(CCC2)NC(=O)[C@@H]2CCCN2C(=O)[C@H](CCc2ccc(C(F)(F)F)c(Cl)c2)NC(=O)CN(C)C(=O)[C@H](Cc2ccc(C(F)(F)F)cc2)N2C[C@H](C)CC[C@@H](C2=O)N(C)C(=O)[C@@H]2CCN2C1=O [PP1345]	B (a compound having 3 or more and less than 10 is denoted as B)	A (a compound having 10 or more and less than 20 is denoted as A)
10.08	8.14	CC[C@H](C)[C@@H]1NC(=O)[C@H](CC2CC2)N(C)C(=O)C[C@@H](C(=O)N(C)C)N(C)C(=O)[C@H](C2CCCC2)N(C)C(=O)C2(CCCC2)NC(=O)[C@@H]2CCCN2C(=O)[C@H](CCc2ccc(C(F)(F)F)c(Cl)c2)NC(=O)CN(C)C(=O)[C@H](Cc2ccc(C(F)(F)F)cc2)N2C[C@H](C)CC[C@@H](C2=O)N(C)C(=O)CN(C)C1=O [PP1346]	B (a compound having 3 or more and less than 10 is denoted as B)	B (a compound having 3 or more and less than 10 is denoted as B)

SMILES	pKd [1]	pIC50 [4]	HRAS/KRAS (ratio of KD value for HRAS to KD value for KRAS) [2]	NRAS/KRAS (ratio of KD value for NRAS to KD value for KRAS) [3]
CCC[C@H]1C(=O)N[C@@H]([C@@H](C)CC)C(=O)N(C)CC(=O)N(C)[C@H]2C/C=C\CCN(C2=O)[C@@H](Cc2ccc(C(F)(F)F)cc2)C(=O)N(C)CC(=O)N[C@@H](CCc2cc(F)c(C(F)(F)F)c(F)c2)C(=O)N2C[C@H](OCC)C[C@H]2C(=O)NC2(CCC2)C(=O)N(C)[C@@H](C2CCCC2)C(=O)N(C)[C@H](C(=O)N2CC3CCC(C2)O3)CC(=O)N1C [PP1315]	9.47	7.46	A (a compound having 10 or more and less than 20 is denoted as A)	AA (a compound having 20 or more is denoted as AA)
